The source of these data is patent US20230167073A1 (Teijin Pharma Limited, priority 2020, published 2023).

For the test, the target named is T1, Human TRPC6 (Homo sapiens, UniProt Q9Y210).
T1 construct: expressed in transfected cells
T1 sequence (Q9Y210 1-931): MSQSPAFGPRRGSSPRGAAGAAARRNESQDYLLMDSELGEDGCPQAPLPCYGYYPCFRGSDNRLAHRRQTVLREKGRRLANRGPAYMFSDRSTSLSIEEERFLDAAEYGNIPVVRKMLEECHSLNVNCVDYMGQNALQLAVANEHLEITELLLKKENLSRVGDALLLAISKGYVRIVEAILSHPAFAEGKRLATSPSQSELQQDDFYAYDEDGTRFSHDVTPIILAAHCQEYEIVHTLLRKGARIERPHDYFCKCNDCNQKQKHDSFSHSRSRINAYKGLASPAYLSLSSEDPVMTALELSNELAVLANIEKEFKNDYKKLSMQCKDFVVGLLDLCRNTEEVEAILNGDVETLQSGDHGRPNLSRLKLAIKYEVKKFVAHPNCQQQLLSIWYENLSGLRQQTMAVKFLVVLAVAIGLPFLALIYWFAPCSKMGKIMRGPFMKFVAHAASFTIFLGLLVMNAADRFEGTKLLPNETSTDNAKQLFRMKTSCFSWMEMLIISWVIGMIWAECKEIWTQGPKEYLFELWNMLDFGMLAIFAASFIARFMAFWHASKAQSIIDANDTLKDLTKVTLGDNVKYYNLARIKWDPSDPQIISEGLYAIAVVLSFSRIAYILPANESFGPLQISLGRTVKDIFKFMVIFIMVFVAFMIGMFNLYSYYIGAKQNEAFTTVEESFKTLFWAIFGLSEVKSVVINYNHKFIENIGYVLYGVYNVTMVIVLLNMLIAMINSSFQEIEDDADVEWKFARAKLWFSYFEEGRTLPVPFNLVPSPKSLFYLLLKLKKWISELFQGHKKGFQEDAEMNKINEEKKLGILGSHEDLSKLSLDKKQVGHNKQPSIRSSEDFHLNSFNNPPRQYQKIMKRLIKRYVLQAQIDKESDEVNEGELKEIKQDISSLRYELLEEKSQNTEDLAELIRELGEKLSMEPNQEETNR
Kind of test: Evaluation of TRPC6 channel inhibitory activity (1), FLIPR Calcium 5 Assay Kit, OAG stimulation (Compound Nos. 1-1293). It is filed as cell-based. In a few lines: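 The FLIPR signal is maximum fluorescence after 30 μM OAG minus minimum before compound, measured in a human TRPC6 stable line loaded with Calcium 5 dye. Compounds were preincubated 20 min. pIC50 came from four-parameter logistic fitting of inhibition rates and is given as symbol ranges.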

[1] abbreviates: Human TRPC6 stably-expressing cells, OAG 30 μM, FLIPR Calcium 5 Assay Kit, read-out: Inhibitory activity (pIC50 class) (converted).

Read-outs that look alike come from different tables or passages of the source.

Take `Cn1nc(C2CC2)cc1Oc1cc(C#N)ccc1-c1cnc(NCCN)nc1` [compound 431, 4-[2-(2-aminoethylamino)pyrimidin-5-yl]-3-(5-cyclopropyl-2-methylpyrazol-3-yl)oxybenzonitrile]: the IC50 under setting [1] was 10 to 1000 nM.

On to `Cn1nc(C2CC2)cc1Oc1cc(C#N)ccc1-c1ncc(NCCN)cn1` [compound 432, 4-[5-(2-aminoethylamino)pyrimidin-2-yl]-3-(5-cyclopropyl-2-methylpyrazol-3-yl)oxybenzonitrile], for which the IC50 under setting [1] was less than 10 nM. The same measure, in the same setting: then `N#Cc1ccc(-c2ccc(C(N)C(=O)O)cn2)c(Oc2cnnc(-c3ccccc3)c2)c1` (stereo not drawn) [compound 433, 2-amino-2-[6-[4-cyano-2-(6-phenylpyridazin-4-yl)oxyphenyl]pyridin-3-yl]acetic acid], with 10 to 1000 nM. Take `Cc1nc(Oc2cc(C#N)ccc2-c2ncc(CCN)cn2)cc(N2CCOCC2)n1` [compound 434, 4-[5-(2-aminoethyl)pyrimidin-2-yl]-3-(2-methyl-6-morpholin-4-ylpyrimidin-4-yl)oxybenzonitrile]: the IC50 under setting [1] was less than 10 nM.

On to `Cc1cc(Oc2cc(C#N)ccc2-c2ccc(C[C@H](N)C(=O)O)cc2)cc(N2CCOCC2)n1` [compound 435, (2S)-2-amino-3-[4-[4-cyano-2-(2-methyl-6-morpholin-4-ylpyridin-4-yl)oxyphenyl]phenyl]propanoic acid], for which the IC50 under setting [1] was greater than 1000 nM. On the same count and under the same terms, then `Cn1nc(C2CC2)cc1Oc1cc(C#N)ccc1-c1ccc(C[C@H](N)C(=O)O)cc1` [compound 436, (2S)-2-amino-3-[4-[4-cyano-2-(5-cyclopropyl-2-methylpyrazol-3-yl)oxyphenyl]phenyl]propanoic acid], with greater than 1000 nM. With `Cc1cc(Oc2cc(C#N)ccc2-c2ccc([C@H](O)CN)cn2)cc(C)n1` [compound 437, 4-[5-[(1S)-2-amino-1-hydroxyethyl]pyridin-2-yl]-3-(2,6-dimethylpyridin-4-yl)oxybenzonitrile], the IC50 under setting [1] was 10 to 1000 nM.

In the case of `Cc1cc(Oc2cc(C#N)ccc2-c2ncc(CCN)cn2)cc(C)n1` [compound 438, 4-[5-(2-aminoethyl)pyrimidin-2-yl]-3-(2,6-dimethylpyridin-4-yl)oxybenzonitrile], the IC50 under setting [1] was 10 to 1000 nM. Turning to `Cc1cc(Oc2cc(C#N)ccc2-c2ncc(CCN)cn2)cc(N2CCO[C@H](C(F)F)C2)n1` [compound 439, 4-[5-(2-aminoethyl)pyrimidin-2-yl]-3-[2-[(2S)-2-(difluoromethyl)morpholin-4-yl]-6-methylpyridin-4-yl]oxybenzonitrile], the IC50 under setting [1] is less than 10 nM. For the compound `Cn1nc(C2CCOCC2)cc1Oc1cc(C#N)ccc1-c1ccc(CN)cn1` [compound 440, 4-[5-(aminomethyl)pyridin-2-yl]-3-[2-methyl-5-(oxan-4-yl)pyrazol-3-yl]oxybenzonitrile], the IC50 under setting [1] is less than 10 nM. The same measure, in the same setting: then `Cn1nc(C2CCOCC2)cc1Oc1cc(C#N)ccc1-c1ncc(CN)cn1` [compound 441, 4-[5-(aminomethyl)pyrimidin-2-yl]-3-[2-methyl-5-(oxan-4-yl)pyrazol-3-yl]oxybenzonitrile], with less than 10 nM; and `Cn1nc(C2CCOCC2)cc1Oc1cc(C#N)ccc1-c1ccc([C@H](O)CN)cn1` [compound 442, 4-[5-[(1S)-2-amino-1-hydroxyethyl]pyridin-2-yl]-3-[2-methyl-5-(oxan-4-yl)pyrazol-3-yl]oxybenzonitrile], with 10 to 1000 nM; and `Cn1nc(C2CC2)cc1Oc1cc(C#N)ccc1-c1cc(CN)ccn1` [compound 443, 4-[4-(aminomethyl)pyridin-2-yl]-3-(5-cyclopropyl-2-methylpyrazol-3-yl)oxybenzonitrile], with 10 to 1000 nM. Still for that read-out and setting: then `Cc1cc(Oc2cc(C#N)ccc2-c2ncc(CCN)cn2)cc(N2CCO[C@@H](C(F)F)C2)n1` [compound 444, 4-[5-(2-aminoethyl)pyrimidin-2-yl]-3-[2-[(2R)-2-(difluoromethyl)morpholin-4-yl]-6-methylpyridin-4-yl]oxybenzonitrile], with less than 10 nM. On to `Cc1cc(Oc2cc(C#N)ccc2-c2ncc(CCN)cn2)cc(N2C3CCC2COC3)n1` [compound 445, 4-[5-(2-aminoethyl)pyrimidin-2-yl]-3-[2-methyl-6-(3-oxa-8-azabicyclo[3.2.1]octan-8-yl)pyridin-4-yl]oxybenzonitrile], for which the IC50 is less than 10 nM. Turning to `Cc1cc(Oc2cc(C#N)ccc2-c2ccc([C@H](O)CN)cn2)cc(N2C3CCC2COC3)n1` [compound 446, 4-[5-[(1S)-2-amino-1-hydroxyethyl]pyridin-2-yl]-3-[2-methyl-6-(3-oxa-8-azabicyclo[3.2.1]octan-8-yl)pyridin-4-yl]oxybenzonitrile], the IC50 was less than 10 nM. For the compound `Cc1nc(Oc2cc(C#N)ccc2-c2ncc(CCN)cn2)cc(N2CCCCC2)n1` [compound 447, 4-[5-(2-aminoethyl)pyrimidin-2-yl]-3-(2-methyl-6-piperidin-1-ylpyrimidin-4-yl)oxybenzonitrile], the IC50 under setting [1] was less than 10 nM. As to `Cc1nc(Oc2cc(C#N)ccc2-c2ncc(CCN)cn2)cc(N2CCCC2)n1` [compound 448, 4-[5-(2-aminoethyl)pyrimidin-2-yl]-3-(2-methyl-6-pyrrolidin-1-ylpyrimidin-4-yl)oxybenzonitrile], under setting [1], the IC50 is less than 10 nM. Still for that read-out and setting: then `Cc1nc(Oc2cc(C#N)ccc2-n2cc(CC(N)C(=O)O)c3ccccc32)cc(-c2ccccc2)n1` (stereo not drawn) [compound 449, 2-amino-3-[1-[4-cyano-2-(2-methyl-6-phenylpyrimidin-4-yl)oxyphenyl]indol-3-yl]propanoic acid], with greater than 1000 nM; and `Cn1nc(C2CC2)cc1Oc1cc(C#N)ccc1-c1cc(N)ccn1` [compound 450, 4-(4-aminopyridin-2-yl)-3-(5-cyclopropyl-2-methylpyrazol-3-yl)oxybenzonitrile], with greater than 1000 nM. In the case of `Cn1nc(C2CC2)cc1Oc1cc(C#N)ccc1-c1cccc(N)n1` [compound 451, 4-(6-aminopyridin-2-yl)-3-(5-cyclopropyl-2-methylpyrazol-3-yl)oxybenzonitrile], under setting [1], the IC50 was greater than 1000 nM.

In the case of `Cn1nc(C2CC2)cc1Oc1cc(C#N)ccc1-c1ccc2ccnc(N)c2c1` [compound 452, 4-(1-aminoisoquinolin-7-yl)-3-(5-cyclopropyl-2-methylpyrazol-3-yl)oxybenzonitrile], under setting [1], the IC50 is greater than 1000 nM. Same read-out and setting: then `Cn1nc(C2CC2)cc1Oc1cc(C#N)ccc1-c1cccc2c(N)nccc12` [compound 453, 4-(1-aminoisoquinolin-5-yl)-3-(5-cyclopropyl-2-methylpyrazol-3-yl)oxybenzonitrile], with greater than 1000 nM. Take `Cc1cc(Oc2cc(C#N)ccc2-c2ncc(CCN)cn2)cc(N2CC3CCC(C2)O3)n1` [compound 454, 4-[5-(2-aminoethyl)pyrimidin-2-yl]-3-[2-methyl-6-(8-oxa-3-azabicyclo[3.2.1]octan-3-yl)pyridin-4-yl]oxybenzonitrile]: under setting [1], the IC50 is less than 10 nM.

In the case of `Cc1cc(Oc2cc(C#N)ccc2-c2ncc(CCN)cn2)cc(N2CCNC(=O)C2)n1` [compound 455, 4-[5-(2-aminoethyl)pyrimidin-2-yl]-3-[2-methyl-6-(3-oxopiperazin-1-yl)pyridin-4-yl]oxybenzonitrile], under setting [1], the IC50 was greater than 1000 nM. Same read-out and setting: then `Cc1cc(Oc2cc(C#N)ccc2-c2ccc(CCN)cn2)cc(N2CCNC(=O)C2)n1` [compound 456, 4-[5-(2-aminoethyl)pyridin-2-yl]-3-[2-methyl-6-(3-oxopiperazin-1-yl)pyridin-4-yl]oxybenzonitrile], with greater than 1000 nM; and `Cn1nc(-c2ccccc2)cc1Oc1cc(C#N)ccc1-c1ccc2c(CN)noc2c1` [compound 457, 4-[3-(aminomethyl)-1,2-benzoxazol-6-yl]-3-(2-methyl-5-phenylpyrazol-3-yl)oxybenzonitrile], with greater than 1000 nM; and `COCCN(C)c1cc(Oc2cc(C#N)ccc2-c2ncc(CCN)cn2)cc(C)n1` [compound 458, 4-[5-(2-aminoethyl)pyrimidin-2-yl]-3-[2-[2-methoxyethyl(methyl)amino]-6-methylpyridin-4-yl]oxybenzonitrile], with less than 10 nM. Turning to `COCCN(C)c1cc(Oc2cc(C#N)ccc2-c2ccc(CCN)cn2)cc(C)n1` [compound 459, 4-[5-(2-aminoethyl)pyridin-2-yl]-3-[2-[2-methoxyethyl(methyl)amino]-6-methylpyridin-4-yl]oxybenzonitrile], the IC50 under setting [1] was less than 10 nM.

Consider `CCc1cc(Oc2cc(C#N)ccc2-n2cc(CC(N)C(=O)O)c3ccccc32)n(C)n1` (stereo not drawn) [compound 460, 2-amino-3-[1-[4-cyano-2-(5-ethyl-2-methylpyrazol-3-yl)oxyphenyl]indol-3-yl]propanoic acid], for which, under setting [1], the IC50 was greater than 1000 nM.
